Measured values reported in patent US7332279B2 (Glycozym APS, priority 1999, dated 2008).

What was measured:
[1] = tested on: porcine tracheal β3Gal-transferase activity; details: acceptor substrate; read-out: apparent Km, porcine β3Gal-transferase activity; cited from earlier work
[2] = biological target: T1, β3Gal-T1 (Homo sapiens, UniProt Q9Y5Z6); assay: Activity of full coding construct of β3Gal-T1 expressed in Sf9 cells (Triton CF54 homogenates or media); type: biochemical; details: 60 hrs post-infection, acceptor 20 mM
T1 construct: Full length enzymes were assayed with 1% Triton CF54 homogenates of washed cells; made in house; host or cells: Sf9 cells, baculovirus
T1 sequence (Q9Y5Z6 1-326): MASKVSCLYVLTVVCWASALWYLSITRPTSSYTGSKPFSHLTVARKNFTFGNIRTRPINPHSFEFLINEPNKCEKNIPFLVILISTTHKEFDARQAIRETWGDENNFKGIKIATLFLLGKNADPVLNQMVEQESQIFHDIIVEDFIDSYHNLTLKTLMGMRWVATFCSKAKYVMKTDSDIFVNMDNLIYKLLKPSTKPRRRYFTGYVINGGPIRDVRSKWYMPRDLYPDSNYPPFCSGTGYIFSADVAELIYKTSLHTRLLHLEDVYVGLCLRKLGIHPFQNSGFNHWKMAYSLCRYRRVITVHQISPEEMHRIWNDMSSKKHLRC

[3] = biological target: T2, β3Gal-T5 (Homo sapiens, UniProt Q9Y2C3, M85T); assay: Activity of full coding construct of β3Gal-T5 expressed in Sf9 cells (Triton CF54 homogenates or media); type: biochemical; details: 60 hrs post-infection, acceptor 20 mM
T2 construct: Full length enzymes were assayed with 1% Triton CF54 homogenates of washed cells; made in house; host or cells: Sf9 cells, baculovirus (pVL1193)
T2 sequence (Q9Y2C3 1-310 M85T): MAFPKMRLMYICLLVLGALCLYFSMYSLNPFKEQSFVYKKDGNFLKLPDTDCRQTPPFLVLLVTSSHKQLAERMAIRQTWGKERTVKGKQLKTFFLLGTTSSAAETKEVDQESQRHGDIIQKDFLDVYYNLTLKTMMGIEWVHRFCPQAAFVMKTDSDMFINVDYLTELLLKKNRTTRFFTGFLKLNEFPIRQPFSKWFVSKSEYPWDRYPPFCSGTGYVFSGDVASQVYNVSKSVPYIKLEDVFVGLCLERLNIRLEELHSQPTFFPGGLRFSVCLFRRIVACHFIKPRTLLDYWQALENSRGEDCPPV
Text: PCR product was cloned into the BamHI site of pAcGP67B (Pharmingen). […] This PCR product was cloned into the BamHI site of pVL1193 (Pharmingen). Both soluble and full length constructs were fully sequenced to confirm fidelity. Plasmids […]5-full were co-transfected with Baculo-GoldTM DNA (Pharmingen) as described previously (Bennett, […]. and Clausen, H. cDNA cloning and expression of a novel human UDP-N-acetyl-alpha-D-galactosamine. Polypeptide N-acetyl-galactosaminyl-transferase, GalNAc-T3. J. Biol. Chem. 271:17006-17012, 1996). Recombinant Baculo-virus were obtained after two successive amplifications in Sf9 cells grown in serum-containing medium, and titers of virus were estimated by titration in 24-well plates with monitoring of enzyme activities. […] J. Biol. […] J. Biol. […] Polypeptide N-acetyl-galactosaminyl-transferase, GalNAc-T3. J. Biol. Chem. 271:17006-17012, 1996). For large scale expression amplified virus was used to infect High FiveTM cells grown in serum-free media (Invitrogen) in upright roller bottles shaking at 140 rpm and 27° C. The kinetic properties were determined with partially purified, secreted forms of the enzymes. […] Reaction products were quantified by Dowex-1 chromatography. […] The transfer of Gal was evaluated after acid precipitation by filtration through Whatman GF/C glass fibre filters. […]

Compound | Km [1] | β3Gal-T1 full coding construct activity, Cells ([2]; 1% Triton CF54 cell homogenate) | β3Gal-T1 full coding construct activity, Media ([2]; media) | β3Gal-T5 full coding construct activity, Cells ([3]; 1% Triton CF54 cell homogenate) | β3Gal-T5 full coding construct activity, Media ([3]; media)
CC(=O)NC1C(OC2C(O)C(CO)OC(Oc3ccc([N+](=O)[O-])cc3)C2NC(C)=O)OC(CO)C(O)C1O [β-D-GlcNAc-(1–3)-α-D-GalNAc-p-Nph] | 2400 µM |  |  |  | 
CC(=O)N[C@H]1[C@H](OCc2ccccc2)O[C@H](CO)[C@@H](O)[C@@H]1O [β-D-GlcNAc-Bzl] |  | 7.2 nmol/min/mL | 0.2 nmol/min/mL | 1.5 nmol/min/mL | 0.1 nmol/min/mL
